We go through four compounds from patent publication US20150073033A1, “BIOMARKERS FOR CANCER CHARACTERIZATION AND TREATMENT” (Board of Regents, The University of Texas System, priority 2011, published 2015).

“Also recorded” adds a separate entry of the source. Like-named read-outs stand apart in the source and are kept apart here.

For one assay, the system named is PKM2 expression. The assay is described as follows: EGF-induced PKM2 upregulation, immunoblotting. Format: cell-based, human. The settings on record: U87/EGFR cells; pretreatment before EGF 100 ng/mL 12 h; AG1478 1 μM, cycloheximide 200 μg/mL, Bis-I 2 μM, Go6976 2 μM, NF-κB activation inhibitor II 7 μM, AKT inhibitor 10 μM, TBB 50 μM, U73122 2 μM. The procedure:
FIG. 56: EGFR activation results in upregulation of PKM2 expression. A-D: Immunoblotting analyses were performed with or without the indicated antibodies. A: The indicated cell lines were treated with EGF (100 ng/mL) for 12 h. B: U87 cells were stably transfected with plasmids expressing EGFR or EGFRvIII. […] D: U87/EGFR cells were pretreated with or without cycloheximide (CHX) (200 μg/mL) for 30 min before EGF (100 ng/mL) treatment for 12 h. […] The relative mRNA levels of PKM2 and PKM1 were normalized to the levels of untreated cells and β-actin mRNA. Data represent the mean±SD of three independent experiments.
FIG. 57: EGF increases PKM2 expression in a PKC- and NF-κB-dependent manner. A-D, H: Immunoblotting analyses were performed with the indicated antibodies. […] ChIP assay was performed with an anti-RelA antibody for immunoprecipitation, followed by PCR with PKM promoter-specific primers. F: An oligonucleotide containing the putative WT or mutated NF-κB binding sequence was labeled using [γ-^32P] ATP and T4 polynucleotide kinase. […] Samples were subjected to 5% polyacrylamide gel electrophoresis, and the dried gel was exposed to x-ray film. […] The relative levels of luciferase activity were normalized to the levels of untreated cells and to the levels of luciferase activity of the Renilla control plasmid. Data represent the mean±standard deviation of three independent experiments.
FIG. 58: PKCε downstream from PLCγ1, rather than TAK1, activates IKKβ and subsequently increases PKM2 expression. […] B: U87/EGFR cells were treated with TNFα (10 ng/mL) for the indicated time. C: U87/EGFR cells were treated with or without EGF (100 ng/mL) or TNFα (10 ng/mL) for 4 h. […] HIF1α was immunodepleted from the cell lysates by incubation with an anti-HIF1α antibody, which was followed by a ChIP assay with an anti-FLAG antibody for immunoprecipitation of FLAG-RelA and PCR analysis with PKM promoter-specific primers. […] F: 293T cells were transiently transfected with constitutively active (+) or kinase-dead (−) PKC mutants. […] H, I: 293T cells were transiently transfected with the indicated plasmids.

Another assay addresses T1, PKCε (Homo sapiens, UniProt Q02156).
T1 construct: endogenous in cells; host or cells: U87/EGFR
T1 sequence (Q02156 1-737): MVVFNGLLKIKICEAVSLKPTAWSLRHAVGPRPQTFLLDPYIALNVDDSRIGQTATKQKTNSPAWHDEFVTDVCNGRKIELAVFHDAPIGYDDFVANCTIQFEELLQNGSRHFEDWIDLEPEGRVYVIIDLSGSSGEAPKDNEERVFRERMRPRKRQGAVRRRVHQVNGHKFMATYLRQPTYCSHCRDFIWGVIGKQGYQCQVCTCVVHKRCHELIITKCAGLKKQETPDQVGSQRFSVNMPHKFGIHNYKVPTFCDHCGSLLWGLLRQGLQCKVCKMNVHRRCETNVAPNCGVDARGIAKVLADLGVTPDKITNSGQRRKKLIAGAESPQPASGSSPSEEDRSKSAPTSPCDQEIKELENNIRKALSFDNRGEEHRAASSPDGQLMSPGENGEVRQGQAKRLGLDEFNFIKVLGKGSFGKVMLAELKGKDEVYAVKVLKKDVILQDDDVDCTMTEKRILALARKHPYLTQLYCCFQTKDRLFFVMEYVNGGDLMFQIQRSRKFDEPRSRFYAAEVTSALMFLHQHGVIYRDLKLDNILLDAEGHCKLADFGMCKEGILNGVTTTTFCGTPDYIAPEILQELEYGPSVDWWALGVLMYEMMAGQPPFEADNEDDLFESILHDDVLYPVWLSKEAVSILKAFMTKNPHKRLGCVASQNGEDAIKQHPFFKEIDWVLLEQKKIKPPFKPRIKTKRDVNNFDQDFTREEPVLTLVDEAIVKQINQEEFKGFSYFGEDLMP
The assay is described as follows: TPA-induced, PKC kinase activity-dependent degradation of PKCε. The settings on record: U87/EGFR cells; Bis-I 2 μM 30 min before TPA 8 h. Format: cell-based. The procedure: (§1) FIG. 63: PKC, NF-κB, PI3-K, and CK2 are inhibited by their inhibitors. A, B: U87/EGFR cells were treated with Bis-I (2 μM) (A) or Go6976 (2 μM) (B) for 30 min before 12-O-tetradecanoylphorbol-13-acetate (TPA) ([…]) for 8 h. Immunoblotting analyses were performed with the indicated antibodies. C: U87/EGFR cells transiently expressing a luciferase reporter vector containing the IκBα promoter were pretreated with or without NF-κB activation inhibitor II (7 μM) for 30 min before TNFα (10 ng/mL) for 8 h. The relative levels of luciferase activity were normalized to the levels of untreated cells and to the levels of luciferase activity of the Renilla control plasmid. Data represent the mean±standard deviation of three independent experiments. […] Immunoblotting analyses were performed with the indicated antibodies.

The next assay relates to AKT. As to the kind of experiment: EGF-induced AKT phosphorylation, immunoblotting. Format: cell-based, human. The settings on record: U87/EGFR cells; LY290042 30 μM or AKT inhibitor 10 μM 30 min before EGF. As to the method:
Immunofluorescence analyses of endogenous PKM2 or transiently expressed FLAG-PKM1 were performed with the indicated antibodies. […] Immunoblotting analyses were performed with the indicated antibodies. […] Immunoblotting analyses were performed with the indicated antibodies. […] Immunoblotting analyses were performed with the indicated antibodies.
as §1
In general terms: A western blot detects proteins with antibodies after separation by electrophoresis.

Assay [1] deals with PKM2. As to the kind of experiment: EGF-induced nuclear translocation of PKM2 (cell fractionation, immunoblotting, immunofluorescence). Format: cell-based, human. The procedure:
Immunoblotting analyses (b, b) were performed with the indicated antibodies. Nuclear PCNA and cytoplasmic tubulin were used as controls. a: The indicated cells were immunostained with an anti-PKM2 antibody.
Immunoblotting and immunoprecipitation analyses were performed with the indicated antibodies. a: Nuclear fractions were prepared from U87/EGFR cells pretreated with LY290042 (30 μM), SU6656 (4 μM), SP600125 (25 μM), and U0126 (20 μM) for 30 min before EGF (100 ng/mL) for 6 h. Nuclear PCNA and cytoplasmic tubulin were used as controls. b: U87/EGFR cells were pretreated with or without U0126 (20 μM) for 30 min before EGF (100 ng/mL) for 6 h. Immunofluorescence analyses were performed with the indicated antibodies. Nuclei were stained with Hoechst 33342 (blue). c: U251 cells were stably transfected with a vector with or without expressing FLAG-ERK2 K52R (left panel) or transiently transfected with vectors expressing MEK1 Q56P and indicated FLAG-tagged ERK2 proteins (right panel). The cells were treated with or without EGF (100 ng/mL) for 6 h, and the total cell lysates and nuclear fractions were prepared. d: FLAG-PKM2 or FLAG-PKM1 was immunoprecipitated with an anti-FLAG antibody from U87/EGFR cells treated with or without EGF (100 ng/mL) for 30 min. e: Bacterially-purified GST-ERK2 immobilized on glutathione agarose beads was mixed with or without purified His-PKM2. GST pull-down analyses were performed. Ten percent of total His-PKM2 was used as an input. f: U87/EGFR cells transfected with vectors expressing the indicated FLAG-tagged ERK proteins were treated with or without EGF (100 ng/mL) for 30 min. g: U87/EGFR cells expressing the indicated FLAG-PKM2 proteins were treated with or without EGF (100 ng/mL) for 30 min.
(§2) Immunofluorescence analyses of endogenous PKM2 or transiently expressed FLAG-PKM1 were performed with the indicated antibodies. […] Immunoblotting analyses were performed with the indicated antibodies. Nuclear PCNA was used as controls for immunoblotting analyses. c: An equal volume of cytosolic and nuclear fractions were prepared from U87/EGFR cells treated with or without EGF (100 ng/mL) for 6 h. Ten microliters of protein from cytosolic and nuclear fractions were used for immunoblotting analyses with the indicated antibodies. d: Nuclear fractions were prepared from U251 cells pretreated with LY290042 (30 μM), SU6656 (4 μM), SP600125 (25 μM), and U0126 (20 μM) for 30 min before EGF (100 ng/mL) for 6 h. Immunoblotting analyses were performed with the indicated antibodies. Nuclear PCNA and cytoplasmic tubulin were used as controls. e: U87/EGFR cells were pretreated with LY290042 (30 μM), SU6656 (4 μM), SP600125 (25 μM), and U0126 (20 μM) for 30 min before EGF (100 ng/mL) for 6 h. Immunoblotting analyses were performed with the indicated antibodies.
Cytosolic and nuclear fractions were prepared. Immunoblotting analyses were performed with the indicated antibodies. b: U87/EGFR cells with depleted endogenous PKM2 and reconstituted expression of RNAi-resistant WT rPKM2 or rPKM2 S37A were treated with or without EGF (100 ng/mL) for 6 h. Total cell lysates (left panel) and nuclear fractions (right panel) were prepared.

The target of the next assay is T2, PKCα (Homo sapiens, UniProt P17252).
T2 construct: endogenous in cells; host or cells: U87/EGFR
As to the kind of experiment: TPA-induced, PKC kinase activity-dependent degradation of PKCα. Format: cell-based. The settings on record: U87/EGFR cells; Go6976 2 μM 30 min before TPA 8 h. The procedure: as §1

The test system of a further assay is U87 cells. The settings on record: no-serum DMEM, U0126 20 μM 30 min before PDGF-AA 50 ng/mL 20 h. The procedure: (§3) Nuclear PCNA. Immunoblotting analyses were performed with the indicated antibodies. b: U87 cells were cultured in no-serum DMEM and treated with or without U0126 (20 μM) for 30 min before PDGF-AA (50 ng/mL) for 20 h. The media were collected for analysis of glucose consumption (left panel) or lactate production (right panel). Data represent the mean±SD of three independent experiments.
Cells were seeded in culture dishes, and the medium was changed after 6 h with no-serum DMEM. Cells were incubated for 12-16 h, and the culture medium was then collected for measurement of glucose and lactate concentrations. Glucose levels were determined using a glucose (GO) assay kit (Sigma). Glucose consumption was the difference in glucose concentration compared with DMEM. Lactate levels were determined using a lactate assay kit (Eton Bioscience, San Diego, Calif.).

A further assay has as its system ERK1/2. The assay is described as follows: EGF-induced ERK1/2 phosphorylation, immunoblotting. Format: cell-based, human. The settings on record: U87/EGFR cells; AG1478 1 μM or U0126 20 μM 30 min before EGF 6 h. The procedure:
as §2
(§4) Extraction of proteins with a modified buffer from cultured cells was followed by immunoprecipitation and immunoblotting with corresponding antibodies, as described previously (Lu et al., 1998).

Assay [2] has as its system PKM2. The settings on record: U87 cells; U0126 20 μM 30 min before PDGF-AA 50 ng/mL 6 h. As to the method:
as §3

The next assay relates to PIN1-PKM2 binding. The settings on record: U0126 20 μM 30 min before EGF 30 min. As to the method: Immunoprecipitation and immunoblotting analyses were performed with the indicated antibodies. a: His-PIN1 immobilized on nickel agarose beads was incubated with lysate of U87/EGFR cells treated with or without U0126 (20 μM) for 30 min before EGF (100 ng/mL) stimulation for 30 min. b: U87/EGFR cells transiently expressing WT FLAG-PKM2 or FLAG-PKM2 S37A were treated with or without EGF (100 ng/mL) for 30 min. […] Data represent the mean±SD of three independent experiments. g: PIN1^−/− cells were reconstituted to express the indicated PIN1 proteins (left panel). The total cell lysates and nuclear fractions were prepared from the indicated cells treated with or without EGF (100 ng/mL) for 6 h (right panel). h: Total cell lysates and nuclear fractions of PIN1^−/− cells or PIN^−/− cells expressing FLAG-PKM2 S37D were prepared.
as §4

For another assay, the system named is PKM2 S37. The settings on record: U87/EGFR cells; U0126 20 μM 30 min before EGF 100 ng/mL 30 min. As to the method:
FIG. 43: ERK2 phosphorylates PKM2 S37. […] Immunofluorescence analyses were performed with an anti-FLAG antibody (f). Nuclei were stained with Hoechst 33342 (blue).
as §4

With `CN(C)CCCn1cc(C2=C(c3c[nH]c4ccccc34)C(=O)NC2=O)c2ccccc21` [Bis-I], the “EGF-induced PKM2 upregulation/expression” value in the assay on PKM2 expression is “largely abrogated; also recorded: blocked”. Further, the “TPA-induced and PKC kinase activity-dependent degradation of PKCε” value at PKCε is reported as “successfully blocked”.

For `O=c1cc(N2CCOCC2)oc2c(-c3ccccc3)cccc12` [LY290042], the “EGF-induced phosphorylation of AKT” value in the assay on AKT is “blocked”. For the same compound, the “EGF-induced nuclear accumulation/translocation of PKM2” value in the assay with PKM2 [1] (U87/EGFR (and U251) cells, 30 min pretreatment before EGF 100 ng/mL, LY290042 30 μM, SU6656 4 μM, SP600125 25 μM, U0126 20 μM, AG1478 1 μM, cycloheximide 100 μg/mL) is given as “only inhibition of MEK/ERK abrogated”.

For `Cn1c2ccccc2c2c3c(c4c5ccccc5n(CCC#N)c4c21)CNC3=O` [Go6976], at PKCα, the “TPA-induced and PKC kinase activity-dependent degradation of PKCα” value is reported as “successfully blocked”.

As to `N#CC(=C(/N)Sc1ccccc1N)/C(C#N)=C(\N)Sc1ccccc1N` [U0126], the “EGF-induced nuclear accumulation/translocation of PKM2” value in the assay with PKM2 [1] is recorded as “abrogated; also recorded: blocked”. Moreover, in the assay with U87 cells, the PDGF-induced glucose uptake result is “blocked” and the PDGF-induced lactate production result is given as “blocked”. Moreover, the “EGF-induced phosphorylation of ERK1/2” value in the assay on ERK1/2 is given as “blocked”. Further, in the assay with PKM2 [2], the “PDGF-induced nuclear translocation of PKM2” value is “blocked”. The “EGF-increased binding of endogenous PIN1 to endogenous PKM2 (co-immunoprecipitation)” value with PIN1-PKM2 binding (U87/EGFR cells) is reported as “blocked”. The “EGF-induced binding of endogenous PKM2 to His-PIN1” value with PIN1-PKM2 binding (lysate of U87/EGFR cells) was “abrogated”. Further, the “EGF-induced PKM2 S37 phosphorylation” value in the assay on PKM2 S37 is “blocked”.
